The nature of data set [1]: Apparent permeability across apical to basolateral side in MDCK cells at 100 uM after 60 mins by HPLC analysis. Conditions: dog. It counts as ADME, cell-based, Canis lupus familiaris.
For data set [2], the system named is HEK293. The experiment in a line: Selectivity ratio of EC50 for GAL4-fused human FXR expressed in HEK293 cells to EC50 for GAL4-fused human RORc expressed in HEK293 cells. It counts as cell-based.
For data set [3], the system named is HEK293. The experiment in a line: Selectivity ratio of EC50 for GAL4-fused human RORa expressed in HEK293 cells to EC50 for GAL4-fused human RORc expressed in HEK293 cells. It counts as cell-based.
Data set [4] deals with HEK293. Briefly: Selectivity ratio of EC50 for GAL4-fused human LXRbeta expressed in HEK293 cells to EC50 for GAL4-fused human RORc expressed in HEK293 cells. The class given is cell-based.
The test system of a further data set is MDCK. Briefly: Efflux ratio of apparent permeability across apical to basolateral side over basolateral to apical side in MDCK cells at 100 uM after 60 mins by HPLC analysis. The following applies: dog, 1 h. It counts as ADME, cell-based, Canis lupus familiaris.
The target in data set [5] is T1, Nuclear receptor subfamily 1 group I member 2 (Homo sapiens, UniProt O75469).
T1 sequence (O75469 whole entry): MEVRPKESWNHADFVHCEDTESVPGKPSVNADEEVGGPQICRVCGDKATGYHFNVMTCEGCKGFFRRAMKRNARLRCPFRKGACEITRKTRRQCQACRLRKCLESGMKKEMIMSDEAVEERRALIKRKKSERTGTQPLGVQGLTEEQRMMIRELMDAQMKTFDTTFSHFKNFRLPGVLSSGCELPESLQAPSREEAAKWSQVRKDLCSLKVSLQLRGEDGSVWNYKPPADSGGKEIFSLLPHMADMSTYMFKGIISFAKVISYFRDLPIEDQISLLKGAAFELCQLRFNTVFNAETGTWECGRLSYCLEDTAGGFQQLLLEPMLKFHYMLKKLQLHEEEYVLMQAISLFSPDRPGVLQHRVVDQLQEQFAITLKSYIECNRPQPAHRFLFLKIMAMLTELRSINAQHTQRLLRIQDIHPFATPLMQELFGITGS
Briefly: Antagonist activity at GAL4-fused human PXR expressed in HEK293 cells assessed as inhibition of T0901317-stimulated transcriptional activity after 20 hrs by dual-glo luciferase reporter gene assay. It counts as cell-based. A general note: In a reporter assay the amount or activity of a reporter protein is the signal.

Data set [6] has as its target T2, Nuclear receptor ROR-gamma (Homo sapiens, UniProt P51449).
T2 sequence (P51449 whole entry): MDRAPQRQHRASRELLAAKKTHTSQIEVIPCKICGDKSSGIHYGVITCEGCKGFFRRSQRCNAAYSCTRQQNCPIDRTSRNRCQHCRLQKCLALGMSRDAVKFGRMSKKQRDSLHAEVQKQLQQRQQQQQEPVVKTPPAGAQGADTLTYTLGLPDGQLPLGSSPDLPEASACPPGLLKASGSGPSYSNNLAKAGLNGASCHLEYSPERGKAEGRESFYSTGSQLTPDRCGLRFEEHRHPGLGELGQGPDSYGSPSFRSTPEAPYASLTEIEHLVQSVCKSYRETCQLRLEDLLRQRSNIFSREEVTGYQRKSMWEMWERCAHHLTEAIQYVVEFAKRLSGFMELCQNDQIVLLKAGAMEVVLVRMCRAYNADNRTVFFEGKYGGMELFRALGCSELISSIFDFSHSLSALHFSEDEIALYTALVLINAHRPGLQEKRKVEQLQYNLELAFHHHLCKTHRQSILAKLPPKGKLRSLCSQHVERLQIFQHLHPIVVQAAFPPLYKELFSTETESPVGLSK
Briefly: Inverse agonist activity at N-terminal 6xHis-tagged human RORc ligand binding domain (241 to 486) expressed in bacterial expression system assessed as inhibition of SRC1 co-activator peptide recruitment after 3 hrs by TR-FRET analysis. It counts as functional. Background: TR-FRET usually uses a lanthanide donor and a delayed reading to cut background.

The test system of data set [7] is HEK293. Briefly: Selectivity ratio of EC50 for GAL4-fused human PXR expressed in HEK293 cells to EC50 for GAL4-fused human RORc expressed in HEK293 cells. The class given is cell-based.
Data set [8] deals with T3, Nuclear receptor ROR-gamma (Homo sapiens) (UniProt P51449).
T3 sequence (whole entry): T2 sequence (P51449 whole entry)
The experiment in a line: Inverse agonist activity at N-terminal 6xHis-tagged human RORc ligand binding domain (241 to 486) expressed in bacterial expression system assessed as inhibition of SRC1 co-activator peptide recruitment after 3 hrs by TR-FRET analysis relative to apo-RORc ligand binding domain.

Data set [9] has as its target Nuclear receptor ROR-alpha (→). Briefly: Inverse agonist activity at GAL4-fused human RORa expressed in HEK293 cells assessed as suppression of basal transcriptional activity after 20 hrs by dual-glo luciferase reporter gene assay.
The target in data set [10] is Nuclear receptor ROR-gamma. Briefly: Inverse agonist activity at GAL4-fused human RORc expressed in HEK293 cells assessed as suppression of basal transcriptional activity after 20 hrs by dual-glo luciferase reporter gene assay.
For data set [11], the system named is HEK293. Briefly: Selectivity ratio of EC50 for GAL4-fused human RORb expressed in HEK293 cells to EC50 for GAL4-fused human RORc expressed in HEK293 cells. It counts as cell-based.
Data set [12] deals with HEK293. The experiment in a line: Selectivity ratio of EC50 for GAL4-fused human LXRalpha expressed in HEK293 cells to EC50 for GAL4-fused human RORc expressed in HEK293 cells. It counts as cell-based.
Data set [13] concerns the target T4, Oxysterols receptor LXR-alpha (Homo sapiens) (UniProt Q13133).
T4 sequence (whole entry): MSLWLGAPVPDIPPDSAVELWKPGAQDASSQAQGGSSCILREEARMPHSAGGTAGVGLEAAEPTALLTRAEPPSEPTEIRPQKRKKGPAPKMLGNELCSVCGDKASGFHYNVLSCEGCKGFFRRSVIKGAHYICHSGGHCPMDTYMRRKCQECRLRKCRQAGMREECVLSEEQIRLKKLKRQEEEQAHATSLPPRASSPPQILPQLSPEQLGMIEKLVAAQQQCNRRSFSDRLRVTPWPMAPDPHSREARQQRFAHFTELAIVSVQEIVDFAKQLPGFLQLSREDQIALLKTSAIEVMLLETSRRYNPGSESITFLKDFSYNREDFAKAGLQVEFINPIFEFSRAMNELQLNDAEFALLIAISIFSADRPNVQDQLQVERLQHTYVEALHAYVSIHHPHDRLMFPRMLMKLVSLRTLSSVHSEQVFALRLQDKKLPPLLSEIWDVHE
Briefly: Agonist activity at GAL4-fused human LXRalpha expressed in HEK293 cells assessed as activation of basal transcriptional activity up to 10 uM after 20 hrs by dual-glo luciferase reporter gene assay. It counts as cell-based.

The test system of data set [14] is PBMC. The experiment in a line: Inhibition of IL-17 production in human PBMC after 48 hrs by Sandwich ELISA. The class given is functional, cell-based. The following applies: for EC50: Homo sapiens, PBMC, 48 h. (In general: In an ELISA, binding on a coated surface is turned into a signal by an enzyme label.)
The subject of data set [15] is PBMC. Briefly: Cytotoxicity against human PBMC assessed as effect on cell physiology after 48 hrs by CellTiter-Glo assay. The class given is cell-based.
Data set [16] deals with PBMC. Briefly: Inhibition of IFNgamma production in human PBMC after 48 hrs by Sandwich ELISA. It counts as functional, cell-based.

As usually defined, the Papp A→B is how fast a substance crosses the layer from the apical side. As usually defined, the EC50 is the concentration giving half of the maximal effect.

Active and inactive are the calls of the source. No cut-off for these calls is given here. Some results are limits rather than exact numbers.

In the case of `O=C(Nc1ccc2c(c1)N(S(=O)(=O)c1ccc(F)cc1)CC2)c1c(F)cccc1F`, in [1], the Papp A→B at 1 h, 100 µM turned out to be 16 ×10⁻⁶ cm/s. Moreover, the Ratio EC50 with HEK293 [2] is 15; with HEK293 [3], 28; with HEK293 [4], 15; in the data set on HEK293 [7], 15; with HEK293 [11], 28; in the data set with HEK293 [12], 15. Also, the Ratio with MDCK is given as less than 2. Further, the EC50 in data set [5] stood at 4.8 µM; in data set [6], 0.086 µM; in [9], 12 µM; in data set [10], 0.28 µM. Moreover, in [8], the Efficacy was -99%. In addition, the outcome in data set [13] was inactive.

Take `O=C(Nc1ccc2c(c1)N(S(=O)(=O)c1ccc(F)cc1)CCC2)c1ccccc1Cl`: the apical-to-basolateral permeability (Papp A→B) at 1 h, 100 µM in [1] turned out to be 12 ×10⁻⁶ cm/s. For the same compound, in [5], the EC50 was 0.94 µM. The Efficacy in [8] is -89%. Besides, the outcome in [13] was inactive.

For `O=C(Nc1ccc2c(c1)N(S(=O)(=O)c1ccc(F)cc1)CCC2)c1c(F)cccc1Cl`, the Papp A→B at 1 h, 100 µM in data set [1] is 12 ×10⁻⁶ cm/s. In the data set on PBMC [14], the “%max” value is 63%. Besides, the EC50 in the data set on PBMC [14] was 2.1 µM; in data set [5], 0.82 µM; in the data set with PBMC [15], more than 20 µM; in the data set with PBMC [16] it was more than 20 µM. In addition, the Efficacy in data set [8] was -89%. Also, in data set [13], the outcome was inactive.

With `O=C(Nc1ccc2c(c1)N(S(=O)(=O)c1ccc(F)cc1)CCC2)c1c(F)cccc1F`, in data set [1], the Papp A→B at 1 h, 100 µM was found to be 22 ×10⁻⁶ cm/s. The “%max” value in the data set with PBMC [14] turned out to be 78%. Besides, the EC50 with PBMC [14] is 1.4 µM; in data set [5] it was 1.1 µM; in the data set with PBMC [15], more than 20 µM; in the data set on PBMC [16] it was more than 20 µM. Also, the Efficacy in [8] was -99%. The outcome in data set [13] was inactive.

Values taken from ChEMBL document CHEMBL3616373, “Identification of N-sulfonyl-tetrahydroquinolines as RORc inverse agonists” (Bioorg Med Chem Lett, 2015).
